Test results as given in patent publication US20130184302A1, “METHODS FOR TREATING IRRITABLE BOWEL SYNDROME (IBS) AND INFECTIONS” (priority 2011, published 2013).
Where two headings read alike, the source gives them in different places.

Key:
[1] = test system: C. difficile infection (CDI); experiment: CDI trial: recurrence of CDI, recurrence rate per person-year; assay type: in vivo, human
Description: Recurrence was defined to be a diarrhea and a positive C. diff stool toxin assay that occurred after initial clinical success.

[2] = test system: IBS patients; conditions: cited from earlier work
[3] = after initial clinical success, Rifaximin N = 67, Vancomycin N = 73
[4] = all subjects, Rifaximin N = 117, Vancomycin N = 115
[5] = Pimentel, et al., responders/treated
[6] = Yang, et al, responders/treated

Compound: CO[C@H]1/C=C/O[C@@]2(C)Oc3c(C)c(O)c4c(O)c(c5c(nc6cc(C)ccn65)c4c3C2=O)NC(=O)/C(C)=C\C=C\[C@H](C)[C@H](O)[C@@H](C)[C@@H](O)[C@@H](C)[C@H](OC(C)=O)[C@@H]1C [Rifaximin, (2S,16Z,18E,20S,21S,22R, 23R,24R,25S,26S,27S,28E)-5,6,21,23,25 Pentahydroxy-27-methoxy-2,4,11,16,20,22,24,26-octamethyl-2,7-(epoxypentadeca-(1,11,13)trienimino) benzofuro (4,5-e) pyrido(1,2,-a) benzimidazole-1,15(2H)-dione,25-acetate]
- Recurrence Rate per Person-Year Exposure ([1]; Rifaximin N = 117, Vancomycin N = 115): 0.613
- Recurrence of CDI: Treatment Difference ([1]; Rifaximin vs Vancomycin, subjects with initial clinical success): 4.7%
- No Recurrence of CDI, number of subjects [1, 3]: 61
- No Recurrence of CDI, percent of subjects [1, 3]: (91%)
- Recurrence of CDI, number of subjects [1, 3]: 6
- Recurrence of CDI, percent of subjects [1, 3]: (9%)
- Recurrence: No, number of subjects [1, 4]: 111
- Recurrence: No, percent of subjects [1, 4]: (95%)
- Recurrence: Yes, number of subjects [1, 4]: 6
- Recurrence: Yes, percent of subjects [1, 4]: (5%)
- Initial treatment response ([2]; Jolley, IBS-D patients, 1200 mg/day for 10 days): Initial treatment response: 56% (25/45)
- Re-treatment response (at least 1) ([2]; Jolley, IBS-D patients, 2400 mg/day for 10 days): Re-treatment response (at least 1): 54%
- Complete (>90%) relief ([2]; Jolley, IBS-D patients): Complete (>90%) relief: 11% (5/45)
- Complete (>90%) relief upon re-treatment ([2]; Jolley, IBS-D patients): re-treatment: 13% (3/24)
- Re-treatment response (at least 1) ([2]; Pimentel, et al., 1 to 6 re-treatments): > 75%
- Initial treatment response ([2]; Pimentel, et al., 169 Non-C IBS Patients (Rome III), 400-550 mg TID for 14 days): Initial treatment response: 75%
- Duration of benefit ([2]; Pimentel, et al.): Duration of benefit is ~4 m
- Re-treatment response, First [2, 5]: 54/65
- Re-treatment response, Second [2, 5]: 38/40
- Re-treatment response, Third [2, 5]: 17/18
- Initial treatment response ([2]; Weinstock, 99 Non-C IBS Patients (Rome II), 1200-1650 mg/day for 10 days): Initial treatment response: 75% (74/99)
- Patients who did not require retreatment ([2]; Weinstock): 27% did not require retreatment
- Patients with only 12 retreatment in 2 y ([2]; Weinstock): 51% only 12 retreatment in 2 y
- Patients who maintained response ([2]; Weinstock, for mean 1.6 y): 41%
- Mean time response was maintained ([2]; Weinstock, in the 41% who maintained response): 1.6 y
- Re-treatment response (at least 1) ([2]; Yang, et al, 1200 mg/day for 10 days): 100%
- Initial treatment response ([2]; Yang, et al, 84 IBS Patients (Rome I), 1200 mg/day for 10 days): Initial treatment response: 69% (58/84)
- Re-treatment response, First [2, 6]: 16/16
- Re-treatment response, Second [2, 6]: 4/4
